# Experimental data taken from PMC4807864 (The Journal of antibiotics, 2013).
# Structures can show the parent of a compound that is named as a salt.
# Biological target: T1, human PPTase (hPPTase) (Homo sapiens, UniProt Q9NRN7)
# T1 sequence (Q9NRN7 1-309): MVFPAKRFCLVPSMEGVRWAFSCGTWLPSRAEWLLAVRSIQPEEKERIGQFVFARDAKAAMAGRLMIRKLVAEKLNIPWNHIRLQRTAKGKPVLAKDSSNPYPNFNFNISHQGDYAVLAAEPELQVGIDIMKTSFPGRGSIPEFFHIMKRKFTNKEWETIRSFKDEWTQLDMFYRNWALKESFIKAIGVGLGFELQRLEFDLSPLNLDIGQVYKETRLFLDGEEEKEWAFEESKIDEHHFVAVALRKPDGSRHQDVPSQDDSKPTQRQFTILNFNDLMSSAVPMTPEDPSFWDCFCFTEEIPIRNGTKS
# Test: Fluorescence polarization phosphopantetheinylation assay
# Assay type: biochemical
# Settings: not given
row,Compound,IC50
1,"NC(CO)C(=O)NNCc1ccc(O)c(O)c1O (stereo not drawn) [benserazide HCl, benserazide]",> 100 µM
2,CC(C)(COP(=O)(O)OP(=O)(O)OC[C@H]1O[C@@H](n2cnc3c(N)ncnc32)[C@H](O)[C@@H]1OP(=O)(O)O)[C@@H](O)C(=O)NCCC(=O)NCCS [coenzyme A],14 ± 1 µM
3,"C[n+]1cc2c3c(ccc2c2ccc4cc5c(cc4c21)OCO5)OCO3 [sanguinarine Cl, sanguinarine]",> 100 µM

# Biological target: Sfp (Bacillus subtilis, UniProt P39135)
# Test: SDS-PAGE fluorescent carrier protein labeling follow-up
# Assay type: biochemical, B. subtilis
# Settings: gel analysis (Figure S22)
# Chain of Sfp (P39135 whole entry): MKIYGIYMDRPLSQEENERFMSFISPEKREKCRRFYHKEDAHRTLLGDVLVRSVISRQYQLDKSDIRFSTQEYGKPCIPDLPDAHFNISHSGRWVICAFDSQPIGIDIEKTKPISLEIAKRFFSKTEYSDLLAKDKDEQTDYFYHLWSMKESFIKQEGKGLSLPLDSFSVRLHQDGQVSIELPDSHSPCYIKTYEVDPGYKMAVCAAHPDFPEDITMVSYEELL
row,Compound,Effect on fluorescent labeling of the carrier protein substrate by SDS-PAGE
1,CC(C)(C)c1ccc(S(=O)(=O)/C=C/C#N)cc1 [Bay 11-7085],increase fluorescent labeling
2,NC(N)=Nc1ccc2[nH]c3c(c2c1)C[C@@]1(O)[C@H]2Cc4ccc(O)c5c4[C@@]1(CCN2CC1CC1)[C@H]3O5.O=C(O)C(F)(F)F.O=C(O)C(F)(F)F [guanidinyl-naltrindole],increase fluorescent labeling
3,"C[n+]1cc2c3c(ccc2c2ccc4cc5c(cc4c21)OCO5)OCO3 [sanguinarine Cl, sanguinarine]",inhibitory behavior
